Test results as given in PubChem BioAssay (NCI).
Several values for one entry are separate records, joined by “and”; a condition that tells them apart may be missing. Equal entries are not always repeated.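 Following 48 hours of exposure in 96-well plates, responses at five concentrations were used to interpolate endpoints linearly. GI50: concentration for 50% inhibition of growth. TGI marks complete inhibition of growth.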

Tests used:
Experiment in all cases: growth of human tumour cells (NCI), 48 h
A498 renal = tested on: A498 renal
HCT-15 colon = tested on: HCT-15 colon
HOP-62 NSCLC = tested on: HOP-62 NSCLC
NCI-H23 lung = tested on: NCI-H23 lung
NCI-H460 lung = tested on: NCI-H460 lung
RPMI-8226 leukemia = tested on: RPMI-8226 leukemia
SF-268 CNS = tested on: SF-268 CNS
SF-539 CNS = tested on: SF-539 CNS
SK-MEL-5 melanoma = tested on: SK-MEL-5 melanoma
MDA-N = tested on: MDA-N

SMILES | GI50 (A498 renal) | TGI (A498 renal) | GI50 (HCT-15 colon) | TGI (HCT-15 colon) | GI50 (HOP-62 NSCLC) | TGI (HOP-62 NSCLC) | GI50 (NCI-H23 lung) | TGI (NCI-H23 lung) | GI50 (NCI-H460 lung) | TGI (NCI-H460 lung) | GI50 (RPMI-8226 leukemia) | TGI (RPMI-8226 leukemia) | GI50 (SF-268 CNS) | TGI (SF-268 CNS) | GI50 (SF-539 CNS) | TGI (SF-539 CNS) | GI50 (SK-MEL-5 melanoma) | TGI (SK-MEL-5 melanoma) | TGI (MDA-N)
O.O=[Se](=O)(O)O.[NH-]C1CCCCC1[NH-].[Pt+2] (configuration not stated) | 19.4 µM | 97 µM | 8.39 µM | > 100 µM | 37.5 µM | > 100 µM | 10.9 µM | > 94.9 µM | 3.77 µM | 38.7 µM | 1.12 µM | > 31.6 µM | 8.09 µM | > 100 µM | 25.3 µM | > 100 µM | 7.4 µM | 15.6 µM | 
COc1cc(/C=C2\N=C(c3ccccc3)N(c3ccc(C(=O)c4ccccc4)cc3N3C(=O)/C(=C/c4cc(OC)c(OC)c(OC)c4)N=C3c3ccccc3)C2=O)cc(OC)c1OC |  | 43 µM |  | 39.2 µM |  | > 100 µM |  | 41.6 µM |  | 23.8 µM |  | > 100 µM |  | > 100 µM |  |  |  | 21.2 µM | 14.9 µM
NC(=S)NS(=O)(=O)c1ccc(Cl)cc1Cl |  |  |  | > 100 µM |  | > 100 µM |  | > 100 µM |  | > 100 µM |  | > 100 µM |  | > 100 µM |  | > 100 µM |  | > 100 µM | > 100 µM
O=C(O)C1(Cc2ccc3c(c2)CCC3)Cc2cc3c(cc2C1)CCC3 |  | > 100 µM |  | > 100 µM |  |  |  |  |  |  |  | > 100 µM |  | > 100 µM |  | > 100 µM |  | > 100 µM | > 100 µM
Cc1cc2nnn(C3CCCO3)c2cc1C (configuration not stated) |  | > 100 µM |  | > 100 µM |  | > 100 µM |  | > 100 µM |  | > 100 µM |  |  |  | > 100 µM |  | > 100 µM |  | > 100 µM | > 100 µM
COC(=O)C[C@H]1[C@]2(C)C3=C(C)[C@H](c4ccoc4)CC3O[C@@H]2[C@@H]2OC(=O)[C@]3(C)CCC(=O)[C@@]1(C)[C@@H]23 (some centres not stated) |  | > 100 µM |  | > 100 µM |  | > 100 µM |  | > 100 µM |  | > 100 µM |  | 50.1 µM |  | > 100 µM |  |  |  | > 100 µM | > 100 µM
CC(=O)N/N=C1\NN(C(C)=O)C2(S1)C(=O)Nc1ccccc12 (configuration not stated) |  |  |  | > 100 µM |  | > 100 µM |  | > 100 µM |  | > 100 µM |  | > 100 µM |  | > 100 µM |  | > 100 µM |  | > 100 µM | > 100 µM
COc1cc(/C=C/C=C2\CC(C)C/C(=C\C=C\c3ccc(O)c(OC)c3)C2=O)ccc1O (configuration not stated) |  |  |  | > 100 µM |  | 37.8 µM |  | 40.2 µM |  | 92.3 µM |  | 48.1 µM |  | > 100 µM |  | 82.3 µM |  | 37.6 µM | 
Cc1ccc(N=Nc2cc(=O)[nH]c(=O)[nH]2)cc1C |  | 36.9 µM |  | 11.2 µM |  | 43.1 µM |  |  |  | 41.6 µM |  | 14 µM |  | 42.6 µM |  | 27.6 µM |  | 30.4 µM | 24.7 µM
C#Cc1ccccc1C(=O)OC |  | > 100 µM |  | > 100 µM |  | > 100 µM |  | > 100 µM |  | > 100 µM |  | > 100 µM |  |  |  | > 100 µM |  | > 100 µM | 
Cc1cc(=O)[nH]c(S(=O)(=O)NC(=S)Nc2ccc(Br)cc2)n1 |  | > 100 µM |  | > 100 µM |  | > 100 µM |  | > 100 µM |  | > 100 µM |  | > 100 µM |  | > 100 µM |  | > 100 µM |  | > 100 µM | 
CCOC(=O)Cn1c(C)nc2nn(Cc3ccccc3)cc2c1=O |  | > 100 µM |  | > 100 µM |  | > 100 µM |  | > 100 µM |  | > 100 µM |  |  |  | > 100 µM |  | > 100 µM |  | > 100 µM | > 100 µM
CC1=NN(C(=O)Cc2ccccc2)C(=O)/C1=C\c1cccc(O)c1 |  |  |  | > 100 µM |  | > 100 µM |  | > 100 µM |  | > 100 µM |  | > 100 µM |  | > 100 µM |  | > 100 µM |  | > 100 µM | 
C=CC(=O)N1C/C(=C\c2ccc(F)cc2)C(=O)/C(=C/c2ccc(F)cc2)C1 |  | 1.48 µM |  | 0.433 µM |  | 1.41 µM |  | 3.32 µM |  | 2.04 µM |  |  |  | 0.622 µM |  | 0.653 µM |  | 3.35 µM | 
CCCCC[C@@H]1OC(=O)[C@@]2(CC3c4ccccc4C2c2ccccc23)[C@H]1C(=O)OC |  | 82.5 µM |  | > 100 µM |  | > 100 µM |  | > 100 µM |  | > 100 µM |  | 54.3 µM |  | > 100 µM |  |  |  | 39.2 µM | > 100 µM
Nc1ncnc2c(C3OC(CO)C(O)C3O)c[nH]c12 (configuration not stated) |  | 0.113 µM and 0.0973 µM |  | 0.333 µM and 0.3 µM | 0.0136 µM | 0.342 µM and 0.0897 µM | < 0.0104 µM | 0.0792 µM and 0.0756 µM |  | 0.048 µM and 0.0128 µM |  |  |  | 0.559 µM | < 0.0117 µM | 0.0546 µM and 0.0374 µM | 0.0187 µM |  | 0.158 µM and 0.138 µM
Brc1ccc2[nH]cc(-c3nc(-c4c[nH]c5ccncc45)cs3)c2c1 | 1.81 µM | 3.22 µM |  |  |  |  | 1.64 µM | 3.17 µM |  |  | 2.48 µM | 5.23 µM |  |  | 1.72 µM | 3.11 µM | 1.61 µM | 2.98 µM | 
CC[N+]1(C)CCC(O)(/C=C/c2ccc(Cl)c(Cl)c2)C(C(=O)/C=C/c2ccc(Cl)c(Cl)c2)C1 (configuration not stated) |  | 7.12 µM |  | 7.13 µM |  | 6.8 µM |  | 7.03 µM |  | 9.03 µM |  | 5.7 µM |  | 8.54 µM |  | 9.13 µM |  | 7.68 µM | 
O=c1oc2ccccc2cc1-c1nc2ccccc2s1 |  | 29.4 µM |  |  |  | 17.8 µM |  | 39.4 µM |  | 53 µM |  | > 85 µM |  | 25.2 µM |  |  |  | > 75.1 µM | > 61.1 µM
Cc1ccc(NC(=O)NC23CC4CC(CC(F)(C4)C2)C3)cc1 |  | > 100 µM |  |  |  | > 100 µM |  | > 100 µM |  | > 100 µM |  | 90.2 µM |  |  |  | > 100 µM |  | > 100 µM | 
C=C(Cl)C(=C)CCC(Cl)C(C)(C)Cl (configuration not stated) |  | > 100 µM |  |  |  | > 100 µM |  | > 100 µM |  | > 100 µM |  | > 100 µM |  | > 100 µM |  | > 100 µM |  | > 100 µM | > 100 µM
CC1=C(C(=O)OC(C)C)C(c2cccc([N+](=O)[O-])c2)C(C(=O)OC(CO[N+](=O)[O-])CO[N+](=O)[O-])=C(C)N1 (configuration not stated) |  |  |  | 19 µM |  | 16.5 µM |  | > 100 µM |  | > 36.7 µM |  | 3.6 µM |  | 22.7 µM |  | 16.3 µM |  | 4.13 µM | 8.71 µM
